In brackets after ≈: the same amount, converted by molar mass.
These compounds were tested on Staphylococcus aureus (assay: Antibacterial activity against quinolone-resistant Staphylococcus aureus CCARM 3519 after 24 hrs by broth microdilution method). Conditions: CCARM 3519, 24 h.
Format: functional

Row | Structure (SMILES) | MIC [mg/L]
1 | O=C(O)[C@H](Cc1ccccc1)N1C(=O)/C(=C/c2cc3cc(OCc4cccc(Cl)c4)ccc3nc2Cl)SC1=S | 2 (≈ 3.36 µM)
2 | CCC(C)[C@@H](C(=O)O)N1C(=O)/C(=C/c2cc3cc(OCc4ccc(F)cc4)ccc3nc2Cl)SC1=S (stereo partly drawn) | 1 (≈ 1.83 µM)
3 | COc1c(N2C[C@@H]3CCCN[C@@H]3C2)c(F)cc2c(=O)c(C(=O)O)cn(C3CC3)c12 [MOXIFLOXACIN] | 4 (≈ 9.96 µM)
4 | O=C(O)[C@H](Cc1ccccc1)N1C(=O)/C(=C/c2cc3cc(OCc4ccccc4Br)ccc3nc2Cl)SC1=S | 2 (≈ 3.13 µM)
5 | COc1c(N2CCNC(C)C2)c(F)cc2c(=O)c(C(=O)O)cn(C3CC3)c12 (stereo not drawn) [GATIFLOXACIN] | 4 (≈ 10.7 µM)
6 | CCC(C)[C@@H](C(=O)O)N1C(=O)/C(=C/c2cc3cc(OCc4cccc(F)c4)ccc3nc2Cl)SC1=S (stereo partly drawn) | 2 (≈ 3.67 µM)

The compounds below were run on Staphylococcus aureus (assay: Antibacterial activity against quinolone-resistant Staphylococcus aureus CCARM 3505 after 24 hrs by broth microdilution method). Conditions: CCARM 3505, 24 h.
Format: functional

Row | Structure (SMILES) | MIC [mg/L]
7 | O=C(O)[C@H](Cc1ccccc1)N1C(=O)/C(=C/c2cc3cc(OCc4cccc(Cl)c4)ccc3nc2Cl)SC1=S | 2 (≈ 3.36 µM)
8 | CCC(C)[C@@H](C(=O)O)N1C(=O)/C(=C/c2cc3cc(OCc4ccc(F)cc4)ccc3nc2Cl)SC1=S (stereo partly drawn) | 2 (≈ 3.67 µM)
9 | O=C(O)[C@H](Cc1ccccc1)N1C(=O)/C(=C/c2cc3cc(OCc4ccccc4Br)ccc3nc2Cl)SC1=S | 2 (≈ 3.13 µM)
10 | COc1c(N2CCNC(C)C2)c(F)cc2c(=O)c(C(=O)O)cn(C3CC3)c12 (stereo not drawn) [GATIFLOXACIN] | 8 (≈ 21.3 µM)
11 | CCC(C)[C@@H](C(=O)O)N1C(=O)/C(=C/c2cc3cc(OCc4cccc(F)c4)ccc3nc2Cl)SC1=S (stereo partly drawn) | 2 (≈ 3.67 µM)

The compounds below were run on Staphylococcus aureus (assay: Antibacterial activity against methicillin-resistant Staphylococcus aureus CCARM 3506 after 24 hrs by broth microdilution method). Conditions: CCARM 3506, 24 h.
Format: functional

Row | Structure (SMILES) | MIC [mg/L]
12 | O=C(O)[C@H](Cc1ccccc1)N1C(=O)/C(=C/c2cc3cc(OCc4cccc(Cl)c4)ccc3nc2Cl)SC1=S | 2 (≈ 3.36 µM)
13 | CCC(C)[C@@H](C(=O)O)N1C(=O)/C(=C/c2cc3cc(OCc4ccc(F)cc4)ccc3nc2Cl)SC1=S (stereo partly drawn) | 1 (≈ 1.83 µM)
14 | O=C(O)[C@H](Cc1ccccc1)N1C(=O)/C(=C/c2cc3cc(OCc4ccccc4Br)ccc3nc2Cl)SC1=S | 2 (≈ 3.13 µM)
15 | COc1c(N2CCNC(C)C2)c(F)cc2c(=O)c(C(=O)O)cn(C3CC3)c12 (stereo not drawn) [GATIFLOXACIN] | 1 (≈ 2.66 µM)
16 | CCC(C)[C@@H](C(=O)O)N1C(=O)/C(=C/c2cc3cc(OCc4cccc(F)c4)ccc3nc2Cl)SC1=S (stereo partly drawn) | 1 (≈ 1.83 µM)

The compounds below were run on Staphylococcus aureus (assay: Antibacterial activity against methicillin-resistant Staphylococcus aureus CCARM 3167 after 24 hrs by broth microdilution method). Conditions: CCARM 3167, 24 h.
Format: functional

Row | Structure (SMILES) | MIC [mg/L]
17 | O=C(O)[C@H](Cc1ccccc1)N1C(=O)/C(=C/c2cc3cc(OCc4cccc(Cl)c4)ccc3nc2Cl)SC1=S | 2 (≈ 3.36 µM)
18 | CCC(C)[C@@H](C(=O)O)N1C(=O)/C(=C/c2cc3cc(OCc4ccc(F)cc4)ccc3nc2Cl)SC1=S (stereo partly drawn) | 2 (≈ 3.67 µM)
19 | O=C(O)[C@H](Cc1ccccc1)N1C(=O)/C(=C/c2cc3cc(OCc4ccccc4Br)ccc3nc2Cl)SC1=S | 2 (≈ 3.13 µM)
20 | COc1c(N2CCNC(C)C2)c(F)cc2c(=O)c(C(=O)O)cn(C3CC3)c12 (stereo not drawn) [GATIFLOXACIN] | 2 (≈ 5.33 µM)
21 | CCC(C)[C@@H](C(=O)O)N1C(=O)/C(=C/c2cc3cc(OCc4cccc(F)c4)ccc3nc2Cl)SC1=S (stereo partly drawn) | 2 (≈ 3.67 µM)

Each compound was assayed on Escherichia coli (assay: Antibacterial activity against Escherichia coli CCARM 1356 after 24 hrs by broth microdilution method). Conditions: CCARM 1356, 24 h.
Format: functional

Row | Structure (SMILES) | MIC [mg/L]
22 | O=C(O)[C@H](Cc1ccccc1)N1C(=O)/C(=C/c2cc3cc(OCc4cccc(Cl)c4)ccc3nc2Cl)SC1=S | > 64
23 | CCC(C)[C@@H](C(=O)O)N1C(=O)/C(=C/c2cc3cc(OCc4ccc(F)cc4)ccc3nc2Cl)SC1=S (stereo partly drawn) | > 64
24 | COc1c(N2C[C@@H]3CCCN[C@@H]3C2)c(F)cc2c(=O)c(C(=O)O)cn(C3CC3)c12 [MOXIFLOXACIN] | > 64
25 | O=C(O)[C@H](Cc1ccccc1)N1C(=O)/C(=C/c2cc3cc(OCc4ccccc4Br)ccc3nc2Cl)SC1=S | > 64
26 | COc1c(N2CCNC(C)C2)c(F)cc2c(=O)c(C(=O)O)cn(C3CC3)c12 (stereo not drawn) [GATIFLOXACIN] | 16 (≈ 42.6 µM)
27 | CCC(C)[C@@H](C(=O)O)N1C(=O)/C(=C/c2cc3cc(OCc4cccc(F)c4)ccc3nc2Cl)SC1=S (stereo partly drawn) | > 64

What follows are compounds tested on Staphylococcus aureus (assay: Antibacterial activity against Staphylococcus aureus KCTC 503 after 24 hrs by broth microdilution method). Conditions: KCTC 503, 24 h.
Format: functional

Row | Structure (SMILES) | MIC [mg/L]
28 | O=C(O)[C@H](Cc1ccccc1)N1C(=O)/C(=C/c2cc3cc(OCc4cccc(Cl)c4)ccc3nc2Cl)SC1=S | 8 (≈ 13.4 µM)
29 | CCC(C)[C@@H](C(=O)O)N1C(=O)/C(=C/c2cc3cc(OCc4ccc(F)cc4)ccc3nc2Cl)SC1=S (stereo partly drawn) | 4 (≈ 7.34 µM)
30 | O=C(O)[C@H](Cc1ccccc1)N1C(=O)/C(=C/c2cc3cc(OCc4ccccc4Br)ccc3nc2Cl)SC1=S | 8 (≈ 12.5 µM)
31 | COc1c(N2CCNC(C)C2)c(F)cc2c(=O)c(C(=O)O)cn(C3CC3)c12 (stereo not drawn) [GATIFLOXACIN] | 4 (≈ 10.7 µM)
32 | CCC(C)[C@@H](C(=O)O)N1C(=O)/C(=C/c2cc3cc(OCc4cccc(F)c4)ccc3nc2Cl)SC1=S (stereo partly drawn) | 8 (≈ 14.7 µM)

Each compound was assayed on Staphylococcus aureus (assay: Antibacterial activity against Staphylococcus aureus KCTC 209 after 24 hrs by broth microdilution method). Conditions: KCTC 209, 24 h.
Format: functional

Row | Structure (SMILES) | MIC [mg/L]
33 | O=C(O)[C@H](Cc1ccccc1)N1C(=O)/C(=C/c2cc3cc(OCc4cccc(Cl)c4)ccc3nc2Cl)SC1=S | 64 (≈ 107 µM)
34 | CCC(C)[C@@H](C(=O)O)N1C(=O)/C(=C/c2cc3cc(OCc4ccc(F)cc4)ccc3nc2Cl)SC1=S (stereo partly drawn) | 2 (≈ 3.67 µM)
35 | O=C(O)[C@H](Cc1ccccc1)N1C(=O)/C(=C/c2cc3cc(OCc4ccccc4Br)ccc3nc2Cl)SC1=S | 8 (≈ 12.5 µM)
36 | COc1c(N2CCNC(C)C2)c(F)cc2c(=O)c(C(=O)O)cn(C3CC3)c12 (stereo not drawn) [GATIFLOXACIN] | 2 (≈ 5.33 µM)
37 | CCC(C)[C@@H](C(=O)O)N1C(=O)/C(=C/c2cc3cc(OCc4cccc(F)c4)ccc3nc2Cl)SC1=S (stereo partly drawn) | 32 (≈ 58.7 µM)

What follows are compounds tested on Staphylococcus aureus (assay: Antibacterial activity against Staphylococcus aureus RN4220 after 24 hrs by broth microdilution method). Conditions: RN4220, 24 h.
Format: functional

Row | Structure (SMILES) | MIC [mg/L]
38 | O=C(O)[C@H](Cc1ccccc1)N1C(=O)/C(=C/c2cc3cc(OCc4cccc(Cl)c4)ccc3nc2Cl)SC1=S | 2 (≈ 3.36 µM)
39 | CCC(C)[C@@H](C(=O)O)N1C(=O)/C(=C/c2cc3cc(OCc4ccc(F)cc4)ccc3nc2Cl)SC1=S (stereo partly drawn) | 1 (≈ 1.83 µM)
40 | COc1c(N2C[C@@H]3CCCN[C@@H]3C2)c(F)cc2c(=O)c(C(=O)O)cn(C3CC3)c12 [MOXIFLOXACIN] | 0.25 (≈ 0.623 µM)
41 | O=C(O)[C@H](Cc1ccccc1)N1C(=O)/C(=C/c2cc3cc(OCc4ccccc4Br)ccc3nc2Cl)SC1=S | 4 (≈ 6.25 µM)
42 | COc1c(N2CCNC(C)C2)c(F)cc2c(=O)c(C(=O)O)cn(C3CC3)c12 (stereo not drawn) [GATIFLOXACIN] | 0.25 (≈ 0.666 µM)
43 | CCC(C)[C@@H](C(=O)O)N1C(=O)/C(=C/c2cc3cc(OCc4cccc(F)c4)ccc3nc2Cl)SC1=S (stereo partly drawn) | 2 (≈ 3.67 µM)
